Assay results reported in US7786141B2 (Vertex Pharmaceuticals Incorporated, priority 2004, dated 2010).

Key:
[1] = target: T1, M4 muscarinic receptor (Homo sapiens, UniProt P08173); test: Functional mobilization of intracellular calcium (FLIPR) in M4-CHO cells; assay type: cell-based; conditions: Table 4; for M4 Activity: M4 receptor, calcium mobilization (FLIPR)
T1 construct: expressed in transfected cells; host or cells: CHO (M4-CHO)
T1 sequence (P08173 1-479): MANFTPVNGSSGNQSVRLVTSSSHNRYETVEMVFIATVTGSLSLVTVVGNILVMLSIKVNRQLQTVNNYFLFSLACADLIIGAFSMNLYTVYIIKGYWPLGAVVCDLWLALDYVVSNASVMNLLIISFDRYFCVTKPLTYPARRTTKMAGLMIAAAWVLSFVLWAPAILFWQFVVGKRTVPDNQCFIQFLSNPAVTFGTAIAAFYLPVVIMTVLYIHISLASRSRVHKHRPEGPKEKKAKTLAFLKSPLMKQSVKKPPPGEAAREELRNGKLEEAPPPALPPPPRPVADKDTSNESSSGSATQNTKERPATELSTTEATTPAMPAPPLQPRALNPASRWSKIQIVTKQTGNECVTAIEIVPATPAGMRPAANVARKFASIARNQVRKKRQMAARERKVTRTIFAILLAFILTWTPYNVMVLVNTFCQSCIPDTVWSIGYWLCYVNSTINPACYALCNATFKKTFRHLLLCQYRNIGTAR
How it was run: (§1)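 FLIPR Ca2+ read, ex 488/em 540 nm, 60 s. Recombinant CHO lines (M1 or M4), dye-loaded Fluo-3 AM 60-90 min at 37° C, probenecid 1 mM, pH 7.4. Agonist: compound alone; inhibition: 15 min compound pre-incubation, then carbachol at EC80 for that subtype.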

[2] = target: T2, M1 muscarinic receptor (Homo sapiens, UniProt P11229); test: Functional mobilization of intracellular calcium (FLIPR) in M1-CHO cells; assay type: cell-based; conditions: Table 4; for M1 Activity: M1 receptor, calcium mobilization (FLIPR)
T2 construct: expressed in transfected cells; host or cells: CHO (M1-CHO)
T2 sequence (P11229 1-460): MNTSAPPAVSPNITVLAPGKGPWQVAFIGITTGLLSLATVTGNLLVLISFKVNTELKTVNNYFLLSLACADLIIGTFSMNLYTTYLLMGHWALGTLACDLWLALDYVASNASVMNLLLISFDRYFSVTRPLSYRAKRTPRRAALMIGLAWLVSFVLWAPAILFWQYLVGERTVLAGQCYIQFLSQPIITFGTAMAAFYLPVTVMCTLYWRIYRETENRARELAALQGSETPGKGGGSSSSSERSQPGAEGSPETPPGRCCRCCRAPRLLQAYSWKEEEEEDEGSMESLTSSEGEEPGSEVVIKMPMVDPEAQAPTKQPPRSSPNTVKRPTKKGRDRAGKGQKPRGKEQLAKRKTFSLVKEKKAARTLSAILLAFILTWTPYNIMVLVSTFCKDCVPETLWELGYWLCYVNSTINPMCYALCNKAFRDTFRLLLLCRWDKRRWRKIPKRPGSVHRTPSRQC
How it was run: as §1

[3] = 100% efficacy is the maximum response obtained with the Carbachol control

SMILES	Emax [1, 3] [%]	M4 Activity [1]	Emax [2, 3] [%]	M1 Activity [2]	M4 Efficacy [1, 3]	M1 Efficacy [2, 3]
CC(=O)N[C@H]1CC2(CCN(CC3CCN(C(=O)OC4CCC4)CC3)CC2)c2ccccc21 [compound 818]	< 25	x (activity was measured to be greater than 5.0 μM)	< 25	x (activity was measured to be greater than 5.0 μM)		
CC(=O)N[C@H]1CCC2(CCN(CCC3CCCN(C(=O)OC(C)(C)C)C3)CC2)c2ccccc21 (stereo partly shown) [compound 819]	< 25	x (activity was measured to be greater than 5.0 μM)	25 to 100	xxx (activity was measured to be less than 2.0 μM)		
CCCC#CCOC(=O)N1C2CCC1CC(N1CCC3(CC1)CN(C(C)=O)c1ccccc13)C2 (stereo not shown) [compound 820]	25 to 100	xxx (activity was measured to be less than 2.0 μM)	25 to 100	xxx (activity was measured to be less than 2.0 μM)		
CC(=O)N[C@H]1CC2(CCN([C@@H]3CC4CCC3C4)C2)c2ccc(F)cc21 (stereo partly shown) [compound 821]	< 25	x (activity was measured to be greater than 5.0 μM)	25 to 100	x (activity was measured to be greater than 5.0 μM)		
CCc1cncc(N2CCC(N3CCC4(CC3)CN(C(C)=O)c3ccccc34)CC2)n1 [compound 822]	25 to 100	xxx (activity was measured to be less than 2.0 μM)	25 to 100	xxx (activity was measured to be less than 2.0 μM)		
CC(=O)N[C@H]1CC2(CCN(C3CCCCCC3)C2)c2ccc(F)cc21 (stereo partly shown) [compound 823]	25 to 100	xx (activity was measured to be between 2.0 μM and 5.0 μM)	25 to 100	xx (activity was measured to be between 2.0 μM and 5.0 μM)		
CC(=O)N1CC2(CCN(C3CCN(C(=O)O[C@H]4CCOC4)CC3)CC2)c2ccccc21 [compound 824]	< 25	x (activity was measured to be greater than 5.0 μM)	25 to 100	x (activity was measured to be greater than 5.0 μM)		
CCC#CCOC(=O)N1CCC(N2CCC3(CC2)CN(C(C)=O)c2cccc(C)c23)CC1 [compound 825]	< 25	x (activity was measured to be greater than 5.0 μM)	25 to 100	xxx (activity was measured to be less than 2.0 μM)		
O=C1CC2(CCN(CC3CC4C=CC3C4)CC2)c2cc(Cl)ccc21 (stereo not shown) [compound 826]	25 to 100	xxx (activity was measured to be less than 2.0 μM)	25 to 100	xxx (activity was measured to be less than 2.0 μM)		
CCOC(=O)N1C2CCC1CC(N1CCC3(CC1)CN(C(C)=O)c1c(C)cc(C)cc13)C2 (stereo not shown) [compound 827]	25 to 100	xxx (activity was measured to be less than 2.0 μM)	25 to 100	xxx (activity was measured to be less than 2.0 μM)		
CC(=O)NC1CCC2(CCN(CCC3CCCN(C(=O)C(C)(C)C)C3)CC2)c2ccccc21 (stereo not shown) [compound 828]	< 25	x (activity was measured to be greater than 5.0 μM)	25 to 100	xxx (activity was measured to be less than 2.0 μM)		
CC(=O)N1CC2(CCN(C3CCN(C(=O)OCC(F)F)CC3)CC2)c2cc(C)ccc21 [compound 829]	25 to 100	xxx (activity was measured to be less than 2.0 μM)	25 to 100	xxx (activity was measured to be less than 2.0 μM)		
CC(=O)N[C@H]1CC2(CCN(C3CCCC3C)CC2)c2ccccc21 (stereo partly shown) [compound 830]	25 to 100	xx (activity was measured to be between 2.0 μM and 5.0 μM)	25 to 100	x (activity was measured to be greater than 5.0 μM)		
CC(=O)N[C@H]1CCC2(CCN(CCC3CCN(C(C)=O)CC3)CC2)c2ccccc21 [compound 832]		xxx (activity was measured to be less than 2.0 μM)		xxx (activity was measured to be less than 2.0 μM)	xx (efficacy was calculated to be between 100% and 25%)	xx (efficacy was calculated to be between 100% and 25%)
CC(=O)NC1CCC2(CCN(CCC3CCN(C(C)=O)CC3)CC2)c2ccccc21 (stereo not shown) [compound 833]	25 to 100	xxx (activity was measured to be less than 2.0 μM)	25 to 100	xxx (activity was measured to be less than 2.0 μM)		
CC(=O)N[C@H]1CC2(CCN(C34CCCCC3C4)CC2)c2ccccc21 (stereo partly shown) [compound 834]	25 to 100	xxx (activity was measured to be less than 2.0 μM)	25 to 100	xxx (activity was measured to be less than 2.0 μM)		
CCOC(=O)N1C2CCC1CC(N1CCC3(CC1)CC(=O)c1ccc(Cl)cc13)C2 (stereo not shown) [compound 836]	25 to 100	xxx (activity was measured to be less than 2.0 μM)	25 to 100	xxx (activity was measured to be less than 2.0 μM)		
COc1cccc(-c2cncc(N3CCC(N4CCC5(CC4)CN(C(C)=O)c4ccccc45)CC3)n2)c1 [compound 837]	< 25	x (activity was measured to be greater than 5.0 μM)	< 25	x (activity was measured to be greater than 5.0 μM)		
CCOC(=O)N1CCC(N2CCC3(CC2)CN(c2cccc(OC)c2)c2ccc(F)cc23)CC1 [compound 838]	25 to 100	xxx (activity was measured to be less than 2.0 μM)	25 to 100	xxx (activity was measured to be less than 2.0 μM)		
Cc1ccc2c(c1)C1(CCN(C3CC4CCC3C4)CC1)CN2C(=O)c1ccncc1 (stereo not shown) [compound 840]	< 25	x (activity was measured to be greater than 5.0 μM)	< 25	x (activity was measured to be greater than 5.0 μM)		
O=C(N[C@H]1CC2(CCN(C3CCCCC3)CC2)c2ccccc21)N1CCCC1 [compound 842]	< 25	xxx (activity was measured to be less than 2.0 μM)	< 25	x (activity was measured to be greater than 5.0 μM)		
CCOC(=O)N1CC[C@@H](CN2CCC3(CC2)CN(C(C)=O)c2ccccc23)C1 [compound 843]	25 to 100	xxx (activity was measured to be less than 2.0 μM)	25 to 100	xxx (activity was measured to be less than 2.0 μM)		
CC#CCN1CC2(CCN(C3CCN(C(=O)OCC)CC3)CC2)c2cc(F)ccc21 [compound 844]	25 to 100	xxx (activity was measured to be less than 2.0 μM)	25 to 100	xxx (activity was measured to be less than 2.0 μM)		
CC(=O)N1CC2(CCN(CC3=CCC4C[C@@H]3C4(C)C)CC2)c2cc(F)ccc21 [compound 845]	< 25	x (activity was measured to be greater than 5.0 μM)	< 25	x (activity was measured to be greater than 5.0 μM)		
O=C1CC2(CCN(CC3CCCCC3)C2)c2ccc(F)cc21 (stereo not shown) [compound 846]	< 25	xx (activity was measured to be between 2.0 μM and 5.0 μM)	< 25	xx (activity was measured to be between 2.0 μM and 5.0 μM)		
